Source: patent US8648201B2, “Aminopyridine derivatives for treating tumors and inflammatory diseases” (MERCK PATENT GmbH, priority 2009, dated 2014)

Key:
Assay type in all cases: biochemical
Settings in all cases: enzyme
PDK1 = biological target: T1, PDK1 (Homo sapiens, UniProt O15530); test: Test for the inhibition of PDK1 (flashplate, 33P-ATP)
T1 construct: His6 (N)
T1 sequence (O15530 51-556 limits assumed): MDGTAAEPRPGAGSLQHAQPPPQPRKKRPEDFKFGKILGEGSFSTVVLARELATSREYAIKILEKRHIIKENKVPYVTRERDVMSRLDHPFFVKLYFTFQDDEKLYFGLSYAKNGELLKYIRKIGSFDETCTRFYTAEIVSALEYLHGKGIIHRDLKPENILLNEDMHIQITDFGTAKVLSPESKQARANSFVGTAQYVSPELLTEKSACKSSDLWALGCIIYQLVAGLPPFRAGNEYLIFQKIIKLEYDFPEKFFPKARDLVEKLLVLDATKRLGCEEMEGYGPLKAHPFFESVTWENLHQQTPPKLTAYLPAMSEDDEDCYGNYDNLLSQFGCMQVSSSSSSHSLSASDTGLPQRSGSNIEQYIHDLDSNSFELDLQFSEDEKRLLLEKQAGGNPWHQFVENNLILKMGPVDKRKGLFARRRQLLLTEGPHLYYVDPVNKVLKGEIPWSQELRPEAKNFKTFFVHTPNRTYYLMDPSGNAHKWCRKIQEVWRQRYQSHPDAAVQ
Procedure: The experimental batches are carried out in a flashplate system with 384 wells/microtitration plate.
In each case, the PDK1 sample His6-PDK1(1-50)(3.4 nM), the PDK1 substrate biotin-bA-bA-[…] (400 nM), 4 μM ATP (with 0.2 μCi of ^33P-ATP/well) and the test substance in 50 μl of conventional experimental solution per well are incubated at 30° C. for 60 min. The test substances are employed in corresponding concentrations (if desired in a dilution series). The control is carried out without test substance. The reaction is stopped using standard methods and washed. The activity of the kinase is measured via the incorporated radioactivity in top count. In order to determine the non-specific kinase reaction (blank value), the experimental batches are carried out in the presence of 100 nM staurosporin.
The radioactivity (decompositions per minute) of the blank value (no use of test substance in the presence of staurosporin) is subtracted from all other radioactivity values. The controls (kinase activity without test substance) are set equal to 100 percent and all other radioactivity values (after subtracting the blank value) are expressed set in relation thereto (for example in % of the control).
IC50 values (50% inhibition) are determined with the aid of statistics programmes, such as, for example, RS1.

IRAK-1 = biological target: T2, IRAK-1 (Homo sapiens, UniProt P51617); test: Test for the inhibition of IRAK1 (autophosphorylation, flashplate)
T2 construct: His6 (N); Dr.Jaekel Pool B, 232Y08C1.IRK
Procedure: (§1) The experimental batches are carried out in a flashplate system with 384 wells/microtitre plate. In each case, in order to investigate the inhibition of the autophosphorylation activity of IRAK1, the IRAK1 sample His6-IRAK1 (5.1 nM), 1 μM ATP (with 0.25 μCi of ^33P-ATP/well) and the test substance in 50 μl of conventional experimental solution per well are incubated at 22° C. for 180 min. The test substances are employed in corresponding concentrations (if desired in a dilution series). The control is carried out without test substance. The reaction is stopped using standard methods and washed. The activity of the kinase is measured via the incorporated radioactivity in top count. In order to determine the non-specific kinase reaction (blank value), the experimental batches are carried out in the presence of 1 μM staurosporin. The radioactivity (decompositions per minute) of the blank value (no use of test substance in the presence of 1 μM staurosporin) is subtracted from all other radioactivity values. The controls (kinase activity without test substance) are set equal to 100 percent and all other radioactivity values (after subtracting the blank value) are expressed set in relation thereto (for example in % of the control). IC50 values (50% inhibition) are determined with the aid of statistics programs, such as, for example, RS1.

IRAK-4 = biological target: T3, IRAK-4 (Homo sapiens, UniProt Q9NWZ3); test: Test for the inhibition of IRAK4 (flashplate, 33P-ATP)
T3 construct: His6 (N); Dr.Jaekel
T3 sequence (Q9NWZ3 1-460): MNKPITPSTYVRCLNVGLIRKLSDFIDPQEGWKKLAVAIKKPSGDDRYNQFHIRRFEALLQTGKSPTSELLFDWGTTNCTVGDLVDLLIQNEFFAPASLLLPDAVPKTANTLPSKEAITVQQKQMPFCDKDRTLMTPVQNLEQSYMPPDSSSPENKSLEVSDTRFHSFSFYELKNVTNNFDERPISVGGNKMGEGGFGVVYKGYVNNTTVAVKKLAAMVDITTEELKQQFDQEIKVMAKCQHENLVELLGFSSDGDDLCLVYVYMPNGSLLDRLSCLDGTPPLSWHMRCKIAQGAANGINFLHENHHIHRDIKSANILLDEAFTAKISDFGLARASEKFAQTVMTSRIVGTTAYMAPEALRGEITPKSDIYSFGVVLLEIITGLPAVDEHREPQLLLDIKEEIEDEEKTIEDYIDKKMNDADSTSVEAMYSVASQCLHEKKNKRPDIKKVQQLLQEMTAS
Procedure: as §1, with “case,” for “case, in order to investigate”, “the IRAK4 sample His6-IRAK4 (7.3 nM),” for “the inhibition of”, “the biotinylated substrate peptide STK substrate 1-biotin (Cisbio Bioassays, France) (300” for “the autophosphorylation activity of IRAK1, the IRAK1 sample His6-IRAK1 (5.1”, “nM), 10” for “nM), 1”

T2 sequence (P51617 whole entry, species assumed): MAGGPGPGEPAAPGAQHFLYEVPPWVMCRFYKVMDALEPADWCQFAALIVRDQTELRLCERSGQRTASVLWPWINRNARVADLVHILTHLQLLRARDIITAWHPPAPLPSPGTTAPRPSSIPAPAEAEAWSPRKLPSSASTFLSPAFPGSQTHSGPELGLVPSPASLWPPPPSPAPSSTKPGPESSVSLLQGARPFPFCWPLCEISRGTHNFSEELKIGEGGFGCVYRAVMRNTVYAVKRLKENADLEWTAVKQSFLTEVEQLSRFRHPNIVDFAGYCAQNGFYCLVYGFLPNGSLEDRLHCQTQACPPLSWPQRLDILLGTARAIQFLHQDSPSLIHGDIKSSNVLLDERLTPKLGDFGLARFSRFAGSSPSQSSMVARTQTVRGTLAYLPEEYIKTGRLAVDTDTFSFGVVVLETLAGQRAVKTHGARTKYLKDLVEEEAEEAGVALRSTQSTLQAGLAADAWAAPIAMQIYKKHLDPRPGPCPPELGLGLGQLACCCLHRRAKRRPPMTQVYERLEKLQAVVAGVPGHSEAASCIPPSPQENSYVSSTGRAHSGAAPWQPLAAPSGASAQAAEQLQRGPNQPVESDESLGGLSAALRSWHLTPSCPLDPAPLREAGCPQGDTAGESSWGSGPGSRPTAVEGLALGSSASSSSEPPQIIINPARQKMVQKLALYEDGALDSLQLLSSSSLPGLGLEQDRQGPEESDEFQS

Compound | IC50 (PDK1) [nM] | IC50 (IRAK-1) [nM] | IC50 (IRAK-4) [nM]
COc1cc2[nH]c(-c3cc(-c4cnn(C5CCNCC5)c4)cnc3N)nc2cc1F [Compound A69] | 1 to 100 | 1 to 100 | 1 to 100
Cn1cc(-c2cnc(N)c(-c3nc4ccc(F)cc4[nH]3)c2)cn1 [Compound A74] | 1 to 100 | 100 to 10000 | 100 to 10000
Cc1cccc2nc(-c3cc(-c4cnn(C5CCNCC5)c4)cnc3N)[nH]c12 [Compound A89, 3-(7-Methyl-1H-benzimidazol-2-yl)-5-(1-piperidin-4-yl-1H-pyrazol-4-yl)pyridin-2-ylamine] | 1 to 100 | 100 to 10000 | 100 to 10000
COc1ccc2nc(-c3cc(-c4cnn(Cc5cccs5)c4)cnc3N)[nH]c2c1 [Compound A113, 3-(6-Methoxy-1H-benzimidazol-2-yl)-5-(1-thiophen-2-ylmethyl-1H-pyrazol-4-yl)pyridin-2-ylamine] | – | 1 to 100 | 100 to 10000
COc1cc2[nH]c(-c3cc(-c4cnn(CCN5CCOCC5)c4)cnc3N)nc2cc1F [Compound A148, 3-(5-Fluoro-6-methoxy-1H-benzimidazol-2-yl)-5-[1-(2-morpholin-4-ylethyl)-1H-pyrazol-4-yl]pyridin-2-ylamine] | 100 to 10000 | 100 to 10000 | 1 to 100
COc1cc2nc(-c3cc(-c4cnn(C)c4)cnc3N)[nH]c2cc1F [Compound A78] | 1 to 100 | 1 to 100 | 100 to 10000
COc1ccc2nc(-c3cc(-c4cnn(CCN(C)C)c4)cnc3N)[nH]c2c1 [Compound A94, 5-[1-(2-Dimethylaminoethyl)-1H-pyrazol-4-yl]-3-(6-methoxy-1H-benzimidazol-2-yl)pyridin-2-ylamine] | – | 100 to 10000 | 100 to 10000
